Experimental data: US9884806B2, “Cyclic vinylogous amides as bromodomain inhibitors” (ICAHN SCHOOL OF MEDICINE AT MOUNT SINAI, priority 2013, dated 2018)

Columns and labels:
[1] = molecular target: T1, first bromodomain (BrD1) of human BRD4 (Homo sapiens, UniProt O60885); test: Fluorescence anisotropy binding assay (competition with FITC-labeled MS417 probe); settings: FITC-MS417 probe 80 nM, PBS pH 7.4, 1 hour, 25° C., read-out: BRD4_1 IC50
T1 construct: the first bromodomain (BrD1) of human BRD4; poly-His (cleaved yes); made in house
Method in brief: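 BRD4 BrD1 (His tag removed by thrombin) at 0.25 to 1 μM competed against 80 nM FITC-labeled MS417 in PBS pH 7.4. Anisotropy read after 1 hour at 25° C. Ki derived from fitted IC50 by Nikolovska-Coleska-corrected Cheng-Prusoff equation, one-site competitive model.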

BRD4_2 = molecular target: T2, BRD4_2 (Homo sapiens, UniProt O60885); test: Fluorescence anisotropy binding assay (competition with FITC-labeled MS417 probe), BRD4_2; settings: FITC-MS417 probe 80 nM, PBS pH 7.4, 1 hour, 25° C.
T2 construct: contains two tandem bromodomains (BrD1 and BrD2)

CC1=C(Nc2cc(C(=O)O)ccc2Br)CCCC1=O [Example 01-48, 4-bromo-3((2-methyl-3-oxocyclohex-1-en-1-yl)amino)benzoic acid]
IC50 [1]: 1 to 10 µM
melting point: 265 to 267 °C
IC50 (BRD4_2): > 10 µM

CC1=C(Nc2ncccc2Cl)CCCC1=O [Example 01-49, 3-[(3-chloropyridin-2-yl)amino]-2-methylcyclohex-2-en-1-one]
IC50 [1]: 1 to 10 µM
melting point: 113 to 115 °C
IC50 (BRD4_2): > 10 µM

CC1=C(Nc2nccnc2Cl)CCCC1=O [Example 01-50, 3-[(3-chloropyrazin-2-yl)amino]-2-methylcyclohex-2-en-1-one]
IC50 [1]: > 10 µM
melting point: 116 to 118 °C
IC50 (BRD4_2): > 10 µM

CC1=C(Nc2ccncc2Cl)CCCC1=O [Example 01-51, 3-[(3-chloropyridin-4-yl)amino]-2-methylcyclohex-2-en-1-one]
IC50 [1]: 1 to 10 µM
melting point: 135 to 138 °C
IC50 (BRD4_2): > 10 µM

CC1=C(Nc2cc(C(=O)O)c3ccccc3c2)CCCC1=O [Example 01-52, 3-[(2-methyl-3-oxocyclohex-1-en-1-yl)amino]naphthalene-1-carboxylic acid]
IC50 [1]: 1 to 10 µM
melting point: 270 to 272 °C
IC50 (BRD4_2): 1 to 10 µM

CC1=C(Nc2ccc3cc(C(=O)O)ccc3c2Cl)CCCC1=O [Example 01-53, 5-chloro-6-[(2-methyl-3-oxocyclohex-1-en-1-yl)amino]naphthalene-2-carboxylic acid]
IC50 [1]: < 1 µM
melting point: 272 to 275 °C (dec.)
IC50 (BRD4_2): 1 to 10 µM

CC1=C(Nc2ccc3ncccc3c2)CCCC1=O [Example 01-54, 2-methyl-3-[(quinolin-6-yl)amino]cyclohex-2-en-1-one]
IC50 [1]: 1 to 10 µM
melting point: 208 to 210 °C
IC50 (BRD4_2): 1 to 10 µM

CC1=C(Nc2ccc3cnccc3c2)CCCC1=O [Example 01-55, 3-[(isoquinolin-6-yl)amino]-2-methylcyclohex-2-en-1-one]
IC50 [1]: 1 to 10 µM
melting point: 163 to 165 °C
IC50 (BRD4_2): 1 to 10 µM

CC1=C(Nc2ccc3ccncc3c2)CCCC1=O [Example 01-56, 3-[(isoquinolin-7-yl)amino]-2-methylcyclohex-2-en-1-one]
IC50 [1]: 1 to 10 µM
melting point: 145 to 147 °C
IC50 (BRD4_2): > 10 µM

CC1=C(Nc2ccc3cccnc3c2)CCCC1=O [Example 01-57, 2-methyl-3-[(quinolin-7-yl)amino]cyclohex-2-en-1-one]
IC50 [1]: 1 to 10 µM
melting point: 133 to 135 °C
IC50 (BRD4_2): 1 to 10 µM

CC1=C(Nc2cc3ccccc3cn2)CCCC1=O [Example 01-58, 3-[(isoquinolin-3-yl)amino]-2-methylcyclohex-2-en-1-one]
IC50 [1]: 1 to 10 µM
melting point: 205 to 208 °C
IC50 (BRD4_2): 1 to 10 µM

CC1=C(Nc2cnc3ccccc3c2)CCCC1=O [Example 01-59, 2-methyl-3-[(quinolin-3-yl)amino]cyclohex-2-en-1-one]
IC50 [1]: 1 to 10 µM
melting point: 172 to 175 °C
IC50 (BRD4_2): > 10 µM

CC1=C(Nc2ccc3nccnc3c2)CCCC1=O [Example 01-60, 2-methyl-3-[(quinoxalin-6-yl)amino]cyclohex-2-en-1-one]
IC50 [1]: 1 to 10 µM
melting point: 110 to 112 °C
IC50 (BRD4_2): 1 to 10 µM

CC1=C(Nc2ccc3ncncc3c2)CCCC1=O [Example 01-61, 2-methyl-3-[(quinazolin-6-yl)amino]cyclohex-2-en-1-one]
IC50 [1]: > 10 µM
melting point: 215 to 216 °C
IC50 (BRD4_2): > 10 µM

CC1=C(Nc2ccc3cc[nH]c3c2)CCCC1=O [Example 01-62, 3-[(1H-indol-6-yl)amino]-2-methylcyclohex-2-en-1-one]
IC50 [1]: < 1 µM
melting point: 227 to 230 °C
IC50 (BRD4_2): 1 to 10 µM

CC1=C(Nc2ccc3[nH]c(=O)[nH]c3c2)CCCC1=O [Example 01-63, 5-[(2-methyl-3-oxocyclohex-1-en-1-yl)amino]-2,3-dihydro-1H-1,3-benzodiazol-2-one]
IC50 [1]: 1 to 10 µM
melting point: 233 to 235 °C
IC50 (BRD4_2): 1 to 10 µM

CC1=C(Nc2ccc3[nH]c(C(=O)O)cc3c2)CCCC1=O [Example 01-64]
IC50 [1]: < 1 µM
melting point: 310 to 315 °C
IC50 (BRD4_2): 1 to 10 µM

CC1=C(Nc2cc(N)ccc2Cl)CCCC1=O [Example 02-10, 3-((5-amino-2-chlorophenyl)amino)-2-methylcyclohex-2-enone]
IC50 [1]: 1 to 10 µM
melting point: 182 to 184 °C
IC50 (BRD4_2): 1 to 10 µM

CC1=C(Nc2ccc(N)cc2Cl)CCCC1=O [Example 02-12, 3-((4-amino-2-chlorophenyl)amino)-2-methylcyclohex-2-enone]
IC50 [1]: 1 to 10 µM
melting point: 156 to 158 °C
IC50 (BRD4_2): 1 to 10 µM

CC1=C(Nc2cccc(N)c2Cl)CCC1=O [Example 02-13, 3-((3-amino-2-chlorophenyl)amino)-2-methylcyclopent-2-enone]
IC50 [1]: 1 to 10 µM
melting point: 223 to 225 °C
IC50 (BRD4_2): 1 to 10 µM

CC1=C(Nc2cc(N)ccc2Cl)CCC1=O [Example 02-15, 3-((5-amino-2-chlorophenyl)amino)-2-methylcyclopent-2-en-1-one]
IC50 [1]: 1 to 10 µM
melting point: 166 to 168 °C
IC50 (BRD4_2): 1 to 10 µM

COc1ccc(NC(=O)c2ccc(NC3=C(C)C(=O)CC3)c(I)c2)cc1 [Example 04-104, 3-iodo-N-(4-methoxyphenyl)-4-((2-methyl-3-oxocyclopent-1-en-1-yl)amino)benzamide]
IC50 [1]: < 1 µM
melting point: 222 to 224 °C
IC50 (BRD4_2): 1 to 10 µM

CC1=C(Nc2cc(C(=O)Nc3ccccc3C)c3ccccc3c2)CCCC1=O [Example 04-106, 3-((2-methyl-3-oxocyclohex-1-en-1-yl)amino)-N-(o-tolyl)-1-naphthamide]
IC50 [1]: < 1 µM
melting point: 249 to 250 °C (dec.)
IC50 (BRD4_2): 1 to 10 µM

COc1ccc(C(=O)Nc2ccc(Cl)c(NC3=C(C)C(=O)CC3)c2)cc1 [Example 05-37, N-(4-chloro-3-((2-methyl-3-oxocyclopent-1-en-1-yl)amino)phenyl)-4-methoxybenzamide]
IC50 [1]: < 1 µM
melting point: 254 to 257 °C
IC50 (BRD4_2): > 10 µM

CC1=C(Nc2cc(NC(=O)c3ccccc3C)ccc2Cl)CCC1=O [Example 05-38, N-(4-chloro-3-((2-methyl-3-oxocyclopent-1-en-1-yl)amino)phenyl)-2-methylbenzamide]
IC50 [1]: < 1 µM
melting point: 230 to 232 °C
IC50 (BRD4_2): < 1 µM

CC1=C(Nc2cc(NC(=O)C3CCCCC3)ccc2Cl)CCC1=O [Example 05-39, N-(4-chloro-3-[(2-methyl-3-oxocyclopent-1-en-1-yl)amino]phenyl)-cyclohexanecarboxamide]
IC50 [1]: < 1 µM
melting point: 240 to 242 °C
IC50 (BRD4_2): 1 to 10 µM

CC1=C(Nc2cc(NC(=O)c3cccc4ccccc34)ccc2Cl)CCC1=O [Example 05-40, N-(4-chloro-3-[(2-methyl-3-oxocyclopent-1-en-1-yl)amino]phenyl)-naphthalene-1-carboxamide]
IC50 [1]: < 1 µM
melting point: 243 to 245 °C
IC50 (BRD4_2): < 1 µM

CC1=C(Nc2ccc(NC(=O)c3ccccc3C)cc2Cl)CCC1=O [Example 05-41, N-(3-chloro-4-((2-methyl-3-oxocyclopent-1-en-1-yl)amino)phenyl)-2-methylbenzamide]
IC50 [1]: < 1 µM
melting point: 280 to 283 °C
IC50 (BRD4_2): 1 to 10 µM

CC1=C(Nc2cccc(NC(=O)c3ccccc3C)c2Cl)CCC1=O [Example 05-42, N-(2-chloro-3-((2-methyl-3-oxocyclopent-1-en-1-yl)amino)phenyl)-2-methylbenzamide]
IC50 [1]: < 1 µM
melting point: 118 to 120 °C
IC50 (BRD4_2): 1 to 10 µM

COc1ccc(C(=O)Nc2ccc(Cl)c(NC3=C(C)C(=O)CCC3)c2)cc1 [Example 05-43, N-(4-chloro-3-((2-methyl-3-oxocyclohex-1-en-1-yl)amino)phenyl)-4-methoxybenzamide]
IC50 [1]: > 10 µM
melting point: 190 to 195 °C
IC50 (BRD4_2): > 10 µM

CC1=C(Nc2cc(NC(=O)c3ccccc3C)ccc2Cl)CCCC1=O [Example 05-44, N-(4-chloro-3-((2-methyl-3-oxocyclohex-1-en-1-yl)amino)phenyl)-2-methylbenzamide]
IC50 [1]: < 1 µM
melting point: 199 to 201 °C
IC50 (BRD4_2): 1 to 10 µM

CC1=C(Nc2cc(NC(=O)C3CCCCC3)ccc2Cl)CCCC1=O [Example 05-45, N-(4-chloro-3-((2-methyl-3-oxocyclohex-1-en-1-yl)amino)phenyl)-cyclohexanecarboxamide]
IC50 [1]: < 1 µM
melting point: 192 to 195 °C
IC50 (BRD4_2): 1 to 10 µM

CC1=C(Nc2cc(NC(=O)c3cccc4ccccc34)ccc2Cl)CCCC1=O [Example 05-46, N-(4-chloro-3-((2-methyl-3-oxocyclohex-1-en-1-yl)amino)phenyl)-1-naphthamide]
IC50 [1]: < 1 µM
melting point: 245 to 247 °C
IC50 (BRD4_2): 1 to 10 µM

CC1=C(Nc2ccc(NC(=O)c3cccc4ccccc34)cc2Cl)CCCC1=O [Example 05-47, N-(3-chloro-4-((2-methyl-3-oxocyclohex-1-en-1-yl)amino)phenyl)-1-naphthamide]
IC50 [1]: < 1 µM
melting point: 245 to 247 °C
IC50 (BRD4_2): 1 to 10 µM

CC1=C(Nc2ccc(NC(=O)c3ccccc3C)cc2Cl)CCCC1=O [Example 05-48, N-(3-chloro-4-((2-methyl-3-oxocyclohex-1-en-1-yl)amino)phenyl)-2-methylbenzamide]
IC50 [1]: < 1 µM
melting point: 234 to 236 °C
IC50 (BRD4_2): 1 to 10 µM
